The target in one test is Nitric oxide synthase 1 (Homo sapiens, UniProt P29475). Put plainly: Inhibitory concentration against Neuronal nitric oxide synthase.
The target of the next test is T1, Nitric oxide synthase 3 (Homo sapiens, UniProt P29474).
T1 sequence (P29474 whole entry): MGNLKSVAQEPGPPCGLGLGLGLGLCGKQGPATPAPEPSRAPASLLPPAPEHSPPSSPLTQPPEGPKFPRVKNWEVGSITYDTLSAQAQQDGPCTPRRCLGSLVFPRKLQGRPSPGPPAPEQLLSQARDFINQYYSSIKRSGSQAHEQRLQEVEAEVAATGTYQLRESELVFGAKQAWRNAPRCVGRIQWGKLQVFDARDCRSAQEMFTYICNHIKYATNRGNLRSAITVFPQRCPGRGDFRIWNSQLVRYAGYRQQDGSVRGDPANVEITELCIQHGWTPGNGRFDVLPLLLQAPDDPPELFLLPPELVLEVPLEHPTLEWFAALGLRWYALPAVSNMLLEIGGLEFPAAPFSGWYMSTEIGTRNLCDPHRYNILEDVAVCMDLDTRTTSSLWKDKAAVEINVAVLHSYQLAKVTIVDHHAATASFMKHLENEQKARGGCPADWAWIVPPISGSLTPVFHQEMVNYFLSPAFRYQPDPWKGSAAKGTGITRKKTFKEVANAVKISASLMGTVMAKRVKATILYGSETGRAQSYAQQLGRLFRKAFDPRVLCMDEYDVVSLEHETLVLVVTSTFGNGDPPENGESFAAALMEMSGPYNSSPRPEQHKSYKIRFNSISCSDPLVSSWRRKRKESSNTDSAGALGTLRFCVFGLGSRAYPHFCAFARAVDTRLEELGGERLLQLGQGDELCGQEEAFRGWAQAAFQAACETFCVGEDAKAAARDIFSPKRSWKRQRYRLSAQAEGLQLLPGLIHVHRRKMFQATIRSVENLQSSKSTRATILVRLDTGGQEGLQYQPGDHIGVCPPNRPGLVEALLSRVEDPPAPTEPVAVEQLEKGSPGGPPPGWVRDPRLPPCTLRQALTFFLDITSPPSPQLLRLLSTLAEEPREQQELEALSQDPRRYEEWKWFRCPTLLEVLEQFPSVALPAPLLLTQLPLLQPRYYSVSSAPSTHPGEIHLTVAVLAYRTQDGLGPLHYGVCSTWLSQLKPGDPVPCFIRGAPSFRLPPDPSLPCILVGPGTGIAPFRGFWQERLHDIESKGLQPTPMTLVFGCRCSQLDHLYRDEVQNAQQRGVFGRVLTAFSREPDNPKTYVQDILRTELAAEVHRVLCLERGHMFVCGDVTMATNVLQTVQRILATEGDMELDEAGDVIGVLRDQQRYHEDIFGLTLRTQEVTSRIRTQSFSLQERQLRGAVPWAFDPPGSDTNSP
Put plainly: Inhibitory concentration against Endothelial nitric oxide synthase.

Test [1] addresses Nitric oxide synthase, inducible (Homo sapiens, UniProt P35228). The test is described as follows: Inhibitory concentration against Inducible nitric oxide synthase.
Test [2] deals with Nitric oxide synthase (inducible and endothelial) (Homo sapiens) (UniProt P35228+P29474). Put plainly: Ratio of inhibitory concentration against Endothelial nitric oxide synthase to Inducible nitric oxide synthase. Type of test: protein assay.

Sequence of Nitric oxide synthase 1 (P29475 whole entry): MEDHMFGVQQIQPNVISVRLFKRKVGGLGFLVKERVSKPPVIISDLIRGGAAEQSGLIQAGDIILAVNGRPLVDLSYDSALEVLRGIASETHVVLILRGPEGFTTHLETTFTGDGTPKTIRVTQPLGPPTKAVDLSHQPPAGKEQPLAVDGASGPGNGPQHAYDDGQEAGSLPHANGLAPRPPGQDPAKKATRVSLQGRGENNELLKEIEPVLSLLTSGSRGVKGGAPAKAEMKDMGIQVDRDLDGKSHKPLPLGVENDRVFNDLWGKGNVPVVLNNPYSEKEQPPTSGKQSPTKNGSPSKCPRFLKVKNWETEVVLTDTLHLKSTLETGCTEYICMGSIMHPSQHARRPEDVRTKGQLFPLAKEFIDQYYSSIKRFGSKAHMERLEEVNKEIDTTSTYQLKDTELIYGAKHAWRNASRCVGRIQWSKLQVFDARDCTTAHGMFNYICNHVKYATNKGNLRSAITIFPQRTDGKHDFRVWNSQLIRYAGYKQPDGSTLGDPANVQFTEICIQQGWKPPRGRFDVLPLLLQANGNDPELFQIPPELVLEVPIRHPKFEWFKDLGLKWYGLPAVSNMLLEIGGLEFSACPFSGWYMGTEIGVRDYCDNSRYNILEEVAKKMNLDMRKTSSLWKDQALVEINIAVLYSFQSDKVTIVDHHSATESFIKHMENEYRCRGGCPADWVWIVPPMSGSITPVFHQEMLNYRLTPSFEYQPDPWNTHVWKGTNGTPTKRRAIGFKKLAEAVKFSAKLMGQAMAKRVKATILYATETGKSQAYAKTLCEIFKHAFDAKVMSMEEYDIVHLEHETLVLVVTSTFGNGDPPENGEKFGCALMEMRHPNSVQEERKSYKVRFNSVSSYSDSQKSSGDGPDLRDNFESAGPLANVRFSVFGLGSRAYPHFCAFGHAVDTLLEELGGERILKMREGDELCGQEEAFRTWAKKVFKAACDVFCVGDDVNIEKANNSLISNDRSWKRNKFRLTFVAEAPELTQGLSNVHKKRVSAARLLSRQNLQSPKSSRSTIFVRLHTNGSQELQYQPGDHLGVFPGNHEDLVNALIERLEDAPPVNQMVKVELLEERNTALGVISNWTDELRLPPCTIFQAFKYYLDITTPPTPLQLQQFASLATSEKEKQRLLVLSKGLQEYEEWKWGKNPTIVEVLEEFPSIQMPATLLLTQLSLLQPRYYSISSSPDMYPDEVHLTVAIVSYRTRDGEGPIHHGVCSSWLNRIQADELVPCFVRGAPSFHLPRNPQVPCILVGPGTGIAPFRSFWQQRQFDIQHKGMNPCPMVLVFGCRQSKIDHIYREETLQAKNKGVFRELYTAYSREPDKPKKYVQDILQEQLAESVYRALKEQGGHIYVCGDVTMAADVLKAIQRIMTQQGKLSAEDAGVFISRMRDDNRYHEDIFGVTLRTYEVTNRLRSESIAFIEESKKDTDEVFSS
Sequence of Nitric oxide synthase, inducible (P35228 whole entry): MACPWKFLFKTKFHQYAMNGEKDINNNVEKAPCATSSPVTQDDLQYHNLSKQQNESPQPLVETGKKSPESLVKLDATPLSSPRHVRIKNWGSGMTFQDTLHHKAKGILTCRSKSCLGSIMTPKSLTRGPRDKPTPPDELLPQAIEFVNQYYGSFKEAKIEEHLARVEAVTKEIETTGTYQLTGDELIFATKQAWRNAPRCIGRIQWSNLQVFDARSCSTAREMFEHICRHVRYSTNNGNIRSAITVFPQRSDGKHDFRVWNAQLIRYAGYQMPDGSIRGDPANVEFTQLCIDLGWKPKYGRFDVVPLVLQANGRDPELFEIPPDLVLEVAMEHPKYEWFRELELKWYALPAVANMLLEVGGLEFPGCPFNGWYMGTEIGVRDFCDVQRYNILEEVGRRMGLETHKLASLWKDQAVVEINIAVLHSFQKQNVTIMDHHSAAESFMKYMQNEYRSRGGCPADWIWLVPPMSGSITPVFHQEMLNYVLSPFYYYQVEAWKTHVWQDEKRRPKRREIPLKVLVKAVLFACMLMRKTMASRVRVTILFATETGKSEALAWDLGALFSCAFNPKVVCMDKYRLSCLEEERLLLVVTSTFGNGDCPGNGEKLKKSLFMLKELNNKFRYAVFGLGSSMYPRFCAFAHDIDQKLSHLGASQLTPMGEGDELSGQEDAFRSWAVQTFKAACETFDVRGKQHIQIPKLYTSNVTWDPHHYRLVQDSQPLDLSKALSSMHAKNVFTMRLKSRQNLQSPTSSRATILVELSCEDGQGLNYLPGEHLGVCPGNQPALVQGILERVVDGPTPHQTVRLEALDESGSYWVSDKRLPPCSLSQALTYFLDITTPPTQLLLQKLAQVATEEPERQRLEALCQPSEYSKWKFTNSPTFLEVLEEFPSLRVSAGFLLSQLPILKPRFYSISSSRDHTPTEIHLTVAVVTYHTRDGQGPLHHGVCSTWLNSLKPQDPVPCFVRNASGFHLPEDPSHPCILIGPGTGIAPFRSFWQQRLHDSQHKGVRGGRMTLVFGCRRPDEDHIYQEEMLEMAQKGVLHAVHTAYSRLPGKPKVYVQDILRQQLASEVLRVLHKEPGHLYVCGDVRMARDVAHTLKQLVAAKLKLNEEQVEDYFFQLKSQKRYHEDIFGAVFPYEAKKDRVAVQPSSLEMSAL

Consider `CC1CC(N)=NC2CCCCC2S1` (stereo not drawn), for which the IC50 (against Nitric oxide synthase 1; against Nitric oxide synthase 3; in test [1]) was above 50000 nM in each case.

On to `CC1CN=C(N)CCS1` (stereo not drawn), for which the IC50 on Nitric oxide synthase 1 came out at 830 nM; against Nitric oxide synthase 3 it was 4100 nM; in test [1], 3500 nM. Moreover, in test [2], the Selectivity was found to be 1.1.

Take `CCC[C@@H]1CSCCC(N)=N1`: the Selectivity in test [2] came out at 42.

Turning to `CC1CSCCC(N)=N1` (stereo not drawn), the half-maximal inhibitory concentration (IC50) against Nitric oxide synthase 1 was determined as 1800 nM; against Nitric oxide synthase 3 it was 5000 nM; in test [1] it was 810 nM. Besides, the Selectivity in test [2] turned out to be 6.1.

Regarding `CC1CC(N)=NCCS1` (stereo not drawn), the IC50 was determined as 1000 nM against Nitric oxide synthase 1, 5000 nM at Nitric oxide synthase 3 and 3000 nM in test [1]. The Selectivity in test [2] is 1.6.

Regarding `CCC[C@@H]1CSCCC(=N)N1`, the figures for the IC50 (on Nitric oxide synthase 1; against Nitric oxide synthase 3; in test [1]) were 7100 nM, 50000 nM and 1200 nM, respectively.

Consider `CC(C)CC1CSCCC(N)=N1` (stereo not drawn), for which the IC50 against Nitric oxide synthase 1 was found to be 1900 nM; on Nitric oxide synthase 3, 60000 nM; in test [1] it was 320 nM. In addition, the Selectivity in test [2] is 186.

`NC1=NCCOCC1`: the IC50 was determined as 8700 nM on Nitric oxide synthase 1, 25000 nM at Nitric oxide synthase 3 and 11800 nM in test [1]. In addition, the Selectivity in test [2] was 2.1.

As for `NC1=NCCCSC1`, the IC50 against Nitric oxide synthase 1 was 2800 nM; against Nitric oxide synthase 3, 10500 nM; in test [1], 1200 nM. Besides, the Selectivity in test [2] worked out at 8.8.

With `CCCC1CSCCC(N)=N1` (stereo not drawn), the IC50 on Nitric oxide synthase 1 came to 2800 nM; against Nitric oxide synthase 3, 50000 nM; in test [1] it was 290 nM. For the same compound, the Selectivity in test [2] turned out to be 172.

On to `NC1=NCCSCC1`, for which the half-inhibitory concentration (IC50) turned out to be 4300 nM at Nitric oxide synthase 1, 13400 nM at Nitric oxide synthase 3 and 1400 nM in test [1]. In addition, the Selectivity in test [2] amounted to 9.5.

In the case of `NC1=NCCCOC1`, on Nitric oxide synthase 3, inhibition was half-maximal at 450 nM (IC50).

As for `CC1CSCCN=C1N` (stereo not drawn), the IC50 (on Nitric oxide synthase 1; on Nitric oxide synthase 3; in test [1]) was above 50000 nM each time.

On to `CC(=N)NCCCC[C@H](N)C(=O)O`, for which, in test [2], the Selectivity came out at 3.7.

For the compound `CCCCC1CSCCC(N)=N1` (stereo not drawn), the IC50 against Nitric oxide synthase 1 was 1200 nM; against Nitric oxide synthase 3, 77000 nM; in test [1], 500 nM. Further, the Selectivity in test [2] came out at 164.

As for `CCC[C@H]1CSCCC(N)=N1`, the figures for the IC50 (against Nitric oxide synthase 1; against Nitric oxide synthase 3; in test [1]) were 440 nM, 1000 nM and 190 nM, respectively. Besides, the Selectivity in test [2] came out at 5.2.

Consider `NC1=NC(CO)CSCC1` (stereo not drawn), for which the concentration for half-maximal inhibition (IC50) at Nitric oxide synthase 1 amounted to 2700 nM; on Nitric oxide synthase 3 it was 6000 nM; in test [1], 1100 nM. Further, the Selectivity in test [2] is 5.3.

With `NC1=NCCNCC1`, the IC50 (at Nitric oxide synthase 1; at Nitric oxide synthase 3; in test [1]) was above 50000 nM in each case.

Turning to `CCC1CSCCC(N)=N1` (stereo not drawn), the IC50 against Nitric oxide synthase 1 is 590 nM; at Nitric oxide synthase 3, 1100 nM; in test [1], 310 nM. Also, the Selectivity in test [2] worked out at 3.7.

The values above are taken from ChEMBL document CHEMBL1138708, “Synthesis of analogs of (1,4)-3- and 5-imino oxazepane, thiazepane, and diazepane as inhibitors of nitric oxide synthases” (Bioorg Med Chem Lett, 2004).
